# Reference: patent publication US20230124361A1, “SMALL MOLECULE STING ANTAGONISTS” (CURADEV PHARMA PVT. LTD., priority 2020, published 2023)
# Biological target: T1, STING (Homo sapiens, UniProt Q86WV6, G230A/H232R/R293Q/R71H)
# T1 construct: host or cells: THP1-Dual cells (human THP-1 monocyte line with Lucia/SEAP reporters)
# Assay: Reporter gene expression assay in THP1-Dual cells (IRF pathway Lucia luciferase, 2',3'-cGAMP stimulation)
# Format: cell-based
# Conditions: 10 min preincubation, 5 μM 2',3'-cGAMP, 20 hr, IRF reporter QUANTI-Luc, read-out: THP-1 (HAQ) Activity
# Procedure, shortened: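 THP1-Dual cells preincubated 10 min with compound, then stimulated with 5 μM 2′,3′-cGAMP for 20 hr. Secreted Lucia luciferase (IRF reporter) measured in supernatant by luminescence; IC50 reported as ranges (A ≤1 μM, B >1–≤10 μM, C >10 μM).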
# T1 sequence (Q86WV6 whole entry R71H/G230A/H232R/R293Q): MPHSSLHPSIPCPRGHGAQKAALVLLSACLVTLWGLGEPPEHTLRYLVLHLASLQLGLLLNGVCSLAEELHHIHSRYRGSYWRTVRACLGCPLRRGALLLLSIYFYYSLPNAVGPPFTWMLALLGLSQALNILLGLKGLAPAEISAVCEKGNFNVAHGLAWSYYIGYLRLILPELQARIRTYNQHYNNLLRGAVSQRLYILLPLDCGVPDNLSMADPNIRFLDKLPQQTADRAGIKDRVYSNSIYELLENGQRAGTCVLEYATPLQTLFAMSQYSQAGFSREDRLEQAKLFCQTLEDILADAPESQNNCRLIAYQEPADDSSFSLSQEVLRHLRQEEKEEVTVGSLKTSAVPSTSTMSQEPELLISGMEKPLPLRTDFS
row,Structure (SMILES),IC50
1,"O=C(Nc1ccc2c(c1)N(c1ccccc1)C(=O)CO2)Nc1ccc2cc[nH]c2c1 [Example 183, 1-(1H-indol-6-yl)-3-(3-oxo-4-phenyl-3,4-dihydro-2H-benzo[b][1,4]oxazin-6-yl)urea]",> 10 µM
2,"NC(=O)C1COc2cc(NC(=O)Nc3ccc4cc[nH]c4c3)ccc2N1Cc1ccccc1 (centres unmarked) [Example 188, 7-(3-(1H-indol-6-yl)ureido)-4-benzyl-3,4-dihydro-2H-benzo[b][1,4]oxazine-3-carboxamide]",1 to 10 µM
3,"CNC(=O)C(c1ccccc1)N1CCOc2ccc(NC(=O)Nc3ccc4cc[nH]c4c3)cc21 (centres unmarked) [Example 189, 2-(6-(3-(1H-indol-6-yl)ureido)-2,3-dihydro-4H-benzo[b][1,4]oxazin-4-yl)-N-methyl-2-phenylacetamide]",1 to 10 µM
4,"O=C(Nc1ccc2c(c1)N(C(C(=O)NC1CC1)c1ccccc1)CCO2)Nc1ccc2cc[nH]c2c1 (centres unmarked) [Example 190, 2-(6-(3-(1H-indol-6-yl)ureido)-2,3-dihydro-4H-benzo[b][1,4]oxazin-4-yl)-N-cyclopropyl-2-phenylacetamide]",1 to 10 µM
5,"O=C1CSc2ccc(N3CCN(c4ccc5cc[nH]c5c4)CC3)cc2N1Cc1ccccc1 [Example 191, 6-(4-(1H-Indol-6-yl)piperazin-1-yl)-4-benzyl-2H-benzo[b][1,4]thiazin-3(4H)-one]",1 to 10 µM
6,N#C/N=C(\Nc1ccc2c(c1)N(Cc1ccccc1)C(=O)CS2)Nc1ccc2cc[nH]c2c1 [Example 192],> 10 µM
7,"CN1C(=O)CSc2ccc(NC(=O)Nc3ccc(F)cc3)cc21 [Example 193, l-(4-fluorophenyl)-3-(4-methyl-3-oxo-3,4-dihydro-2H-benzo[b][1, 4]thiazin-6-yl)urea]",> 10 µM
8,"Nc1ncc2c(n1)CCN(C(=O)Nc1ccc3c(c1)N(Cc1ccccc1)C(=O)CS3)C2 [Example 194, 2-amino-N-(4-benzyl-3-oxo-3,4-dihydro-2H-benzo[b][1, 4]thiazin-6-yl)-7,8-dihydropyrido [4,3-d] pyrimidine-6(5H)-carboxamide]",> 10 µM
9,"O=C1CSc2ccc(NC(=O)Nc3ccc4cc[nH]c4c3)cc2N1 [Example 195, 1-(1H-indol-6-yl)-3-(3-oxo-3,4-dihydro-2H-benzo[b][1, 4]thiazin-6-yl)urea]",> 10 µM

# More lines, now with the values ahead:
row,IC50,Structure (SMILES)
1,1 to 10 µM,"NC(=O)c1cc2c(cc1NC(=O)Nc1ccc3cc[nH]c3c1)N(Cc1ccccc1)CCO2 [Example 179, 6-(3-(1H-indol-6-yl)ureido)-4-benzyl-3,4-dihydro-2H-benzo[b][1, 4]oxazine-7-carboxamide]"
2,1 to 10 µM,"O=C(Nc1ccc2cc[nH]c2c1)Nc1cc2c(cc1Br)OCCN2Cc1ccccc1 [Example 180, 1-(4-benzyl-7-bromo-3,4-dihydro-2H-benzo[b][1, 4]oxazin-6-yl)-3-(1H-indol-6-yl)urea]"
3,≤ 1 µM,"O=C(Nc1ccc2c(c1)OCCN2c1ccccc1)Nc1ccc2cc[nH]c2c1 [Example 181, 1-(1H-indol-6-yl)-3-(4-phenyl-3,4-dihydro-2H-benzo[b][1,4]oxazin-7-yl)urea]"
4,≤ 1 µM,"O=C(Nc1ccc2c(c1)SCCN2c1ccccc1)Nc1ccc2cc[nH]c2c1 [Example 182, 1-(1H-indol-6-yl)-3-(4-phenyl-3,4-dihydro-2H-benzo[b][1,4]thiazin-7-yl)urea]"
5,1 to 10 µM,"O=C(Nc1ccc2c(c1)N(c1ccccc1)CCO2)Nc1ccc2cc[nH]c2c1 [Example 184, 1-(1H-indol-6-yl)-3-(4-phenyl-3,4-dihydro-2H-benzo[b][1,4]oxazin-6-yl)urea]"
6,≤ 1 µM,"O=C(Nc1ccc2c(c1)OCCN2c1ncco1)Nc1ccc2cc[nH]c2c1 [Example 185, 1-(1H-indol-6-yl)-3-(4-(oxazol-2-yl)-3,4-dihydro-2H-benzo[b][1,4]oxazin-7-yl)urea]"
7,1 to 10 µM,"N#CC1COc2cc(NC(=O)Nc3ccc4cc[nH]c4c3)ccc2N1Cc1ccccc1 (centres unmarked) [Example 186, 1-(4-benzyl-3-cyano-3,4-dihydro-2H-benzo[b][1,4]oxazin-7-yl)-3-(1H-indol-6-yl)urea]"
8,1 to 10 µM,"NCC1COc2cc(NC(=O)Nc3ccc4cc[nH]c4c3)ccc2N1Cc1ccccc1 (centres unmarked) [Example 187, 1-(3-(aminomethyl)-4-benzyl-3,4-dihydro-2H-benzo[b][1,4]oxazin-7-yl)-3-(1H-indol-6-yl)urea]"
